US10125135B2, “Chemical compounds” (AstraZeneca AB, priority 2016, dated 2018)

Assay: Human hepatocyte assay (metabolic stability)
Assay type: in vitro ADME
Conditions: human hepatocytes, 37° C., 1.0×10^6 viable cells/mL; read-out: Clint (in vitro intrinsic clearance)
Experimental: The metabolic stability of compounds in human hepatocytes was assessed using the following protocol: • 1. Prepare 10 mM stock solutions of compound and control compounds in appropriate solvent (DMSO). Place incubation medium (L-15Medium) in a 37° C. water bath, and allow warming for at least 15 minutes prior to use. • 2. Add 80 μL of acetonitrile to each well of the 96-well deep well plate (quenching plate). • 3. In a new 96-well plate, dilute the 10 mM test compounds and the control compounds to 100 μM by combining 198 μL of acetonitrile and 2 μL of 10 mM stock. • 4. Remove a vial of cryopreserved (less than −150° C.) human hepatocytes (LiverPool™ 10 Donor Human hepatocytes obtained from Celsis IVT. Chicago, Ill. (Product No. S01205)) from storage, ensuring that vials remain at cryogenic temperatures until thawing process ensues. As quickly as possible, thaw the cells by placing the vial in a 37° C. water bath and gently shaking the vials. Vials should remain in water bath until all ice crystals have dissolved and are no longer visible. After thawing is completed, spray vial with 70% ethanol, transfer the vial to a bio-safety cabinet. • 5. Open the vial and pour the contents into the 50 mL conical tube containing thawing medium. Place the 50 mL conical tube into a centrifuge and spin at 100 g for 10 minutes. […] Using Cellometer® Vision, count cells and determine the viable cell density. Cells with poor viability (<80% viability) are not acceptable for use. Dilute cells with incubation medium to a working cell density of 1.0×10^6 viable cells/mL. • 7. Transfer 247.5 μL of hepatocytes into each well of a 96-well cell culture plate. Place the plate on Eppendorf Thermomixer Comfort plate shaker to allow the hepatocytes to warm for 10 minutes. • 8. Add 2.5 μL of 100 μM test compound or control compounds into an incubation well containing cells, mix to achieve a homogenous suspension at 0.5 min, which when achieved, will define the 0.5 min time point. At the 0.5 min time, transfer 20 μL incubated mixture to wells in a “Quenching plate” followed by vortexing. • 9. Incubate the plate at 37° C. at 900 rpm on an Eppendorf Thermomixer Comfort plate shaker. At 5, 15, 30, 45, 60, 80, 100 and 120 min, mix the incubation system and transfer samples of 20 μL incubated mixture at each time point to wells in a separate “Quenching plate” followed by vortexing. • 10. Centrifuge the quenching plates for 20 minutes at 4,000 rpm. 4 different compounds are pooled into one cassette and used for LC/MS/MS analysis.
All calculations are carried out using Microsoft Excel. Peak areas are determined from extracted ion chromatograms. In vitro intrinsic clearance (in vitro Clint, in μL/min/10^6 cells) of parent compound is determined by regression analysis of the Ln percent parent disappearance vs. time curve. The in vitro intrinsic clearance (in vitro Clint, in μL/min/10^6 cells) is determined from the slope value using the following equation and is shown in Table C:
V=incubation volume (0.25 mL);
N=number of hepatocytes per well (0.25×10 ^6 cells).

`COc1cc(OCCN2CC(CF)C2)ccc1[C@@H]1c2ccc3[nH]ncc3c2C[C@@H](C)N1CC1(F)CC1` [Example 6, (6S,8R)-7-((1-fluorocyclopropyl)methyl)-6-(4-(2-(3-(fluoromethyl)azetidin-1-yl)ethoxy)-2-methoxyphenyl)-8-methyl-6,7,8,9-tetrahydro-3H-pyrazolo[4,3-f]isoquinoline] gave a hepatocyte CLint at 1 µM of 7 µL/min/1e6 cells.

`COc1cc(OCCN2CC(CF)C2)ccc1[C@@H]1c2ccc3[nH]ncc3c2C[C@@H](C)N1CC(C)(C)F` [Example 5, (6S,8R)-7-(2-fluoro-2-methylpropyl)-6-(4-(2-(3-(fluoromethyl)azetidin-1-yl)ethoxy)-2-methoxyphenyl)-8-methyl-6,7,8,9-tetrahydro-3H-pyrazolo[4,3-f]isoquinoline] gave a hepatocyte CLint at 1 µM of 12 µL/min/1e6 cells.

Work on `C[C@@H]1Cc2c(ccc3[nH]ncc23)[C@@H](c2ccc(OCCN3CC(CF)C3)cn2)N1CC(F)(F)F` [Example 49, (6S,8R)-6-(5-(2-(3-(fluoromethyl)azetidin-1-yl)ethoxy)pyridin-2-yl)-8-methyl-7-(2,2,2-trifluoroethyl)-6,7,8,9-tetrahydro-3H-pyrazolo[4,3-f]isoquinoline] yielded a hepatocyte CLint at 1 µM of 3 µL/min/1e6 cells.

Compound `C[C@@H]1Cc2c(ccc3[nH]ncc23)[C@@H](c2ccc(OCCN3CC(CF)C3)cn2)N1CC(F)F` [Example 51, (6S,8R)-7-(2,2-difluoroethyl)-6-(5-(2-(3-(fluoromethyl)azetidin-1-yl)ethoxy)pyridin-2-yl)-8-methyl-6,7,8,9-tetrahydro-3H-pyrazolo[4,3-f]isoquinoline] has a hepatocyte CLint at 1 µM of 5 µL/min/1e6 cells.

Compound `C[C@@H]1Cc2c(ccc3[nH]ncc23)[C@@H](c2ccc(OCCN3CC(CF)C3)cn2)N1CC1(F)CC1` [Example 8, (6S,8R)-7-((1-fluorocyclopropyl)methyl)-6-(5-(2-(3-(fluoromethyl)azetidin-1-yl)ethoxy)pyridin-2-yl)-8-methyl-6,7,8,9-tetrahydro-3H-pyrazolo[4,3-f]isoquinoline] has a hepatocyte CLint at 1 µM of 8 µL/min/1e6 cells.

With `COc1cc(OCCN2CC(CF)C2)ccc1[C@@H]1c2ccc3[nH]ncc3c2C[C@@H](C)N1CC(C)C` [Example 9, (6S,8R)-6-(4-(2-(3-(fluoromethyl)azetidin-1-yl)ethoxy)-2-methoxyphenyl)-7-isobutyl-8-methyl-6,7,8,9-tetrahydro-3H-pyrazolo[4,3-f]isoquinoline] the hepatocyte CLint at 1 µM was 3 µL/min/1e6 cells.
